Tests used:
[1] = molecular target: T1, human IBAT (Homo sapiens, UniProt Q12908); experiment: In vitro assay using Cos 7 cells, transiently expressed human IBAT; assay type: cell-based; conditions: 37° C., 60 minutes
T1 sequence (Q12908 1-348): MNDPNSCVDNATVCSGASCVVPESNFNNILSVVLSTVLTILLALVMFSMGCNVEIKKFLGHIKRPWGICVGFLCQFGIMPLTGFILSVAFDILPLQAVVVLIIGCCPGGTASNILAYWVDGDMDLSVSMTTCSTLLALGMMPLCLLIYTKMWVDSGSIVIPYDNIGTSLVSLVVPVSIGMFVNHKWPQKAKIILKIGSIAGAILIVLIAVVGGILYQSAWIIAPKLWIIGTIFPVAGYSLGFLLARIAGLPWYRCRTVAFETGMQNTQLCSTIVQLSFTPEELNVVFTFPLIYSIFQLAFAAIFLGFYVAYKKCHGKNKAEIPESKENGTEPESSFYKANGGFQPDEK
In short: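 Cos 7 cells transfected with human or rat IBAT cDNA were assayed one day later in Hanks buffer with 25 mM glucose and 10 mM HEPES (pH 7.4) containing compound. [^3H]-taurocholate (8 μM final) uptake ran 60 min at 37° C. Cells were washed with 1 mM taurocholate, lysed in NaOH, and counted by liquid scintillation.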

[2] = tested on: rats dosed cholic acid; experiment: Lowering effect on bile acid concentrations in portal vein blood in rats dosed cholic acid; assay type: in vivo, rat
Method: In the present Test Example, a lowering effect on bile acid concentrations in portal vein blood in rats dosed cholic acid was evaluated according to the method described in Jpn. Pharmacol. Ther., Vol. 24 Supplement, 1996, 103(S-577)-110(S-584).
That is, SD (IGS) strain male rats at 7 to 9 weeks of age were fasted one day before the administration date. […] The blood was collected from the portal vein 2 hours after the forced oral administration, and a total bile acid value in serum was measured to examine the effect of the test compound (n=6). As a control, another group (n=6) merely received cholic acid (200 mg/kg), to which the same procedure was applied. The cholic acid value was measured using the commercially available kit (brand name: Total Bile Acid-Test Wako, supplied form Wako Pure Chemical Industries). Defining the value in the control group to which no test compound had been administered as being 100%, a reduction rate (%) of the bile acid value when a certain amount of the test compound had been administered was calculated.

[3] = tested on: Caco-2 cell; experiment: Gastrointestinal toxicity: cytotoxicity against Caco-2 cell (LDH activity); assay type: cell-based, human; conditions: 2 hours, LDH activity in medium relative to cell lysis agent = 100%
Method: That is, 10,000 cells/well of Caco-2 cells (purchased from ATCC) were seeded in a 96-well plate [MEM-E medium, 10% FBS (Fetal Bovine Serum), 1% NEAA (Non Essential Amino Acid) solution, supplied from Gibco]. After culturing for 48 hours, the test compound diluted with the medium was added to each well. After 2 hours, 50 μL of the medium was collected, and an LDH activity in the medium was measured using an LDH activity measurement kit (CytoTox96 Non-Radioactive Cytotoxicity Assay, supplied from Promega). Defining the LDH activity of the Caco-2 cells treated with a cell lysis agent as being 100%, the relative activity was calculated as a index of the cytotoxicity.

[4] = molecular target: T2, rat IBAT (Rattus norvegicus, UniProt Q62633); experiment: In vitro assay using Cos 7 cells, transiently expressed rat IBAT; assay type: cell-based; conditions: [3H]-taurocholate 8 μM uptake, 37° C., 60 minutes
T2 sequence (Q62633 1-348): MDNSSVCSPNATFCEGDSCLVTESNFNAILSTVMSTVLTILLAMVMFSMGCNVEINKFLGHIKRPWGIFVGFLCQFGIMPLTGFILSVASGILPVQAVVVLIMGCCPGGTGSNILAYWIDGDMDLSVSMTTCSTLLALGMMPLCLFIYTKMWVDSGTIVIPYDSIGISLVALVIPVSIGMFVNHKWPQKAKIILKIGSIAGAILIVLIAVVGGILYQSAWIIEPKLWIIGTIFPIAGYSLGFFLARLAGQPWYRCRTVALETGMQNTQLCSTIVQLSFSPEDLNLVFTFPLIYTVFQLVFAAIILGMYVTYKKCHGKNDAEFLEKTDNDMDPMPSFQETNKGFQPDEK
Method: In the present Test Example, an in vitro assay of compounds using Cos 7 cells as to inhibitory activity on transiently expressed human IBAT or rat IBAT transporter was performed according to the method described in Am. J. Physiol., 274, G157-169.
That is, […] cells/well of Cos 7 cells were seeded in a 24-well plate, and after one day, the cells were transfected with 0.3 μg/well of cDNA of human IBAT or rat IBAT using FuGENE6 (supplied from Roche). After culturing for one day after the transfection, the cells were washed once with the assay buffer, i.e., Hanks buffer containing 25 mM glucose and 10 mM HEPES (pH 7.4). The assay buffer was then replaced with the assay buffer containing the test compound. [^3H]-Taurocholate at a final concentration of 8 μM was added thereto and incubated at 37° C. for 60 minutes so that [^3H]-taurocholate was taken into Cos 7 cells by the action of human IBAT or rat IBAT. The cells were washed twice with the assay buffer containing 1 mM taurocholate, and subsequently lysed with 0.2 M NaOH to stop the reaction. The cell lysate was added to 4 mL of liquid scintillation cocktail, which was then thoroughly vortexed. Then the radioactivity was measured using the liquid scintillation counter.

[5] = tested on: rats fed cholesterol food; experiment: Blood cholesterol lowering effect in rats fed cholesterol food; assay type: in vivo, rat; conditions: 0.3 mg/kg per administration, oral, twice per day; SD (IGS) male rats; serum 3 hours after final administration
Method: In the present Test Example, a blood cholesterol lowering effect on rats fed cholesterol food was evaluated according to the method described in J. Lipid Res., 1995, 36, 1098-1105.
That is, the food containing 0.4% cholesterol and 0.5% bile acid was given to SD (IGS) strain male rats at 7 to 9 weeks of age for 5 days in advance of the test date, to increase blood cholesterol levels. The rats in which the blood cholesterol level had been obviously elevated from the level before loading the cholesterol food were selected as the subjects in the test. Colestimide (brand name: Cholebine 70% granules, supplied from Mitsubishi Tokyo Pharmaceutical Inc.) which is an anion exchange resin drug was suspended in distilled water, and the test compound was dissolved or suspended in distilled water. They were orally administered forcibly twice per day everyday from the starting date (each n=8). The blood was collected from jugular vein 3 hours after the drug administration on the final day of the experiment, and the cholesterol level in serum was measured to examine the effect of the test compound. As a control, another group (n=8) was merely fed cholesterol food, to which distilled water (1 mL/kg) was administered and the same procedure was applied. The total cholesterol value and the HDL cholesterol value were measured using commercially available kits. The value obtained by subtracting the HDL cholesterol value from the total cholesterol value was regarded as an LDL+VLDL cholesterol value.

[6] = 0.1 mg/kg oral, surfactant Tween 20 0.05%, cholic acid 200 mg/kg, portal vein blood 2 hours after administration
[7] = 0.1 mg/kg oral, surfactant HCO-60 0.1%, cholic acid 200 mg/kg, portal vein blood 2 hours after administration
[8] = 0.1 mg/kg oral with cholic acid 200 mg/kg, portal vein serum total bile acid 2 hours after, control = 100%, surfactant HCO-60 (##)

Compound	IC50 ([1]; [3H]-taurocholate 8 μM uptake)	CELL TOXICITY AGAINST Caco2 3 μM [3]	CELL TOXICITY AGAINST Caco2 10 μM [3]	CELL TOXICITY AGAINST Caco2 30 μM [3]	BILE ACID REDUCTION RATE (%) IN RAT MODEL WITH CHOLIC ACID LOADING [2, 8]	further results
CCCCC1(CCCC)CS(=O)(=O)c2ccc(N(C)C)cc2C(c2cccc(NC(=S)NCCC[N+](C)(C)Cc3ccccc3)c2)N1.[Br-] (stereo not shown) [EXAMPLE 425]	170 nM	–	–	–	–	BILE ACID REDUCTION RATE (%) IN RAT MODEL WITH CHOLIC ACID LOADING [2, 6]: 21%
CCCCC1(CCCC)CS(=O)(=O)c2ccc(N(C)C)cc2C(c2cccc(NC(=S)Nc3ccc(C[n+]4cccc(CC#N)c4)cc3)c2)N1.[Br-] (stereo not shown) [EXAMPLE 3759]	–	<1%	<1%	<1%	–	BILE ACID REDUCTION RATE (%) IN RAT MODEL WITH CHOLIC ACID LOADING ([2]; 0.3 mg/kg oral with cholic acid 200 mg/kg, portal vein serum total bile acid 2 hours after, control = 100%, surfactant HCO-60 (##)): 36%
CCCCC1(CCCC)CS(=O)(=O)c2ccc(N(C)C)cc2C(c2cccc(NC(=S)CCCCC[N+](C)(C)Cc3ccccc3)c2)N1.[Br-] (stereo not shown) [EXAMPLE 3835]	43 nM	<1%	<1%	<1%	–	BILE ACID REDUCTION RATE (%) IN RAT MODEL WITH CHOLIC ACID LOADING [2, 6]: 23%
CCCCC1(CCCC)CS(=O)(=O)c2ccc(N(C)C)cc2C(c2cccc(NC(=S)Nc3ccc(C[N+]4(Cc5ccccc5)CCC(CCO)CC4)cc3)c2)N1.[Br-] (stereo not shown) [EXAMPLE 3608]	59 nM	<1%	<1%	<1%	–	BILE ACID REDUCTION RATE (%) IN RAT MODEL WITH CHOLIC ACID LOADING [2, 7]: 43%
CCCCC1(CCCC)CS(=O)(=O)c2ccc(N(C)C)cc2C(c2cccc(NC(=S)Nc3ccc(C[N+]45CCC(c6ccccc6)(CC4)CC5)cc3Br)c2)N1.[Br-] (stereo not shown) [EXAMPLE P346]	19 nM	–	<1%	<1%	–	IC50 [4]: 6 nM
CCCCC1(CCCC)CS(=O)(=O)c2ccc(N(C)C)cc2C(c2cccc(NC(=S)Nc3ccc(C[n+]4ccc(C(C)(C)C)cc4)cc3F)c2)N1.[Br-] (stereo not shown) [EXAMPLE P366]	25 nM	–	–	–	45%	LDL + VLDL REDUCTION RATE (%) IN CHOLESTEROL FED RAT MODEL (THERAPEUTIC MODEL) [5]: 31%
CCCCC1(CCCC)CS(=O)(=O)c2ccc(N(C)C)cc2C(c2cccc(NC(=S)Nc3ccc(C[n+]4ccc5ccccc5c4)cc3)c2)N1.[Br-] (stereo not shown) [EXAMPLE 3783]	48 nM	<1%	<1%	<1%	16%	–
CCCCC1(CCCC)CS(=O)(=O)c2ccc(N(C)C)cc2C(c2cccc(NC(=S)Nc3ccc(C[N+]4(Cc5ccccc5)CCCC(CO)C4)cc3)c2)N1.[Br-] (stereo not shown) [EXAMPLE 3607]	41 nM	<1%	<1%	<1%	–	BILE ACID REDUCTION RATE (%) IN RAT MODEL WITH CHOLIC ACID LOADING [2, 7]: 36%
CCCCC1(CCCC)CS(=O)(=O)c2ccc(N(C)C)cc2C(c2cccc(NC(=S)Nc3ccc(C[N+](C)(C)CCCC)cc3)c2)N1.[Br-] (racemic) [EXAMPLE 3409]	45 nM	<1%	<1%	<1%	28%	–
CCCCC1(CCCC)CS(=O)(=O)c2ccc(N(C)C)cc2C(c2cccc(NC(=S)Nc3ccc(C[n+]4ccc(CC)cc4)cc3)c2)N1.[Br-] (stereo not shown) [EXAMPLE 3710]	52 nM	<1%	<1%	<1%	20%	–
CCCCC1(CCCC)CS(=O)(=O)c2ccc(N(C)C)cc2C(c2cccc(NC(=S)Nc3ccc(C[N+](C)(C)CCOCCO)cc3)c2)N1.[Br-] (racemic) [EXAMPLE 3475]	–	–	–	–	19%	–
CCCCC1(CCCC)CS(=O)(=O)c2ccc(N(C)C)cc2C(c2cccc(NC(=S)Nc3ccc(C[n+]4ccc(C(C)(C)C)cc4)c(C)c3)c2)N1.[Br-] (stereo not shown) [EXAMPLE P365]	–	–	–	–	40%	IC50 ([1]; [3H]-taurocholate 8 μM): 47 nM; LDL + VLDL REDUCTION RATE (%) IN CHOLESTEROL FED RAT MODEL (THERAPEUTIC MODEL) [5]: 44%
CCCCC1(CCCC)CS(=O)(=O)c2ccc(N(C)C)cc2C(c2cccc(NC(=S)Nc3ccc(C[N+]45CCC(c6ccccc6)(CC4)CC5)c(F)c3)c2)N1.[Br-] (stereo not shown) [EXAMPLE P343]	16 nM	–	<1%	<1%	–	IC50 [4]: 5.5 nM
CCCCC1(CCCC)CS(=O)(=O)c2ccc(N(C)C)cc2C(c2cccc(NC(=S)Nc3ccccc3C[N+]34CCC(CC3)CC4)c2)N1.[Br-] (stereo not shown) [EXAMPLE 4905]	–	–	–	–	28%	–
